In ChEMBL document CHEMBL1201862, “PubChem BioAssay data set” (2004):
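Test compounds were applied to cells in 96-well plates for 48 hours at 5 doses. GI50 marks 50% less growth.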 Calls of active or inactive are those of the source. Cut-off read from the data, not from the text of the source: active = GI50 up to about 1.1 µM and inactive = higher.

Legend:
Experiment in all cases: DTP human tumour cell line panel, 48 h
[1] = tested on: 786-0
[2] = tested on: Malme-3M
[3] = tested on: RXF 393
[4] = tested on: OVCAR-3
[5] = tested on: DLD-1
[6] = tested on: SK-MEL-2
[7] = tested on: XF498
[8] = tested on: MOLT-4
[9] = tested on: M14
[10] = tested on: A549
[11] = tested on: HCT-116
[12] = tested on: UO-31
[13] = tested on: TK-10
[14] = tested on: OVCAR-8
[15] = tested on: HOP-92
[16] = tested on: LXFL 529
[17] = tested on: LOX IMVI
[18] = tested on: OVCAR-4
[19] = tested on: SK-MEL-5
[20] = tested on: COLO 205
[21] = tested on: SNB-19
[22] = tested on: IGROV-1
[23] = tested on: HT-29
[24] = tested on: HCT-15
[25] = tested on: CCRF-CEM
[26] = tested on: HOP-62
[27] = tested on: A498
[28] = tested on: NCI-H226
[29] = tested on: HL-60
[30] = tested on: SF-268
[31] = tested on: KM-20L2
[32] = tested on: OVCAR-5
[33] = tested on: SK-MEL-28
[34] = tested on: SR
[35] = tested on: SN12C
[36] = tested on: UACC-62
[37] = tested on: UACC-257
[38] = tested on: DMS-114
[39] = tested on: NCI-H522
[40] = tested on: SF-295
[41] = tested on: DMS-273
[42] = tested on: SNB-75
[43] = tested on: HCC 2998
[44] = tested on: RXF 631
[45] = tested on: ACHN
[46] = tested on: K562
[47] = tested on: SK-OV-3
[48] = tested on: M19-MEL
[49] = tested on: NCI-H23
[50] = tested on: U-251
[51] = tested on: SW-620
[52] = tested on: EKVX
[53] = tested on: RPMI-8226
[54] = tested on: KM12
[55] = tested on: NCI-H460
[56] = tested on: CAKI-1
[57] = tested on: SF-539
[58] = tested on: SNB-78
[59] = tested on: HOP-18

Question: With `C[C@]12C=CC(=O)C=C1CC[C@H]1[C@@H]3C[C@@H](O)[C@](O)(C(=O)CO)[C@@]3(C)C[C@H](O)[C@@]12F` [TRIAMCINOLONE] as the compound, how does the GI50 [1] read?
Answer: > 100 µM (inactive)

Question: And the GI50 [2]?
Answer: > 100 µM (inactive)

Question: What about the GI50 [3] of the same compound?
Answer: > 100 µM (inactive)

Question: What about the GI50 [4] of the same compound?
Answer: > 100 µM (inactive)

Question: What about the GI50 [5] of the same compound?
Answer: > 100 µM (inactive)

Question: What about the GI50 [6] of the same compound?
Answer: > 100 µM (inactive)

Question: What about the GI50 [7] of the same compound?
Answer: > 100 µM (inactive)

Question: And the GI50 [8]?
Answer: > 100 µM (inactive)

Question: What about the GI50 [9] of the same compound?
Answer: > 100 µM (inactive)

Question: And the GI50 [10]?
Answer: > 100 µM (inactive)

Question: What about the GI50 [11] of the same compound?
Answer: > 100 µM (inactive)

Question: What about the GI50 [12] of the same compound?
Answer: > 100 µM (inactive)

Question: What about the GI50 [13] of the same compound?
Answer: > 100 µM (inactive)

Question: What about the GI50 [14] of the same compound?
Answer: > 100 µM (inactive)

Question: And the GI50 [15]?
Answer: > 100 µM (inactive)

Question: And the GI50 [16]?
Answer: > 100 µM (inactive)

Question: What about the GI50 [17] of the same compound?
Answer: > 100 µM (inactive)

Question: And the GI50 [18]?
Answer: > 100 µM (inactive)

Question: And the GI50 [19]?
Answer: > 100 µM (inactive)

Question: What about the GI50 [20] of the same compound?
Answer: > 100 µM (inactive)

Question: And the GI50 [21]?
Answer: > 100 µM (inactive)

Question: And the GI50 [22]?
Answer: > 100 µM (inactive)

Question: What about the GI50 [23] of the same compound?
Answer: > 100 µM (inactive)

Question: And the GI50 [24]?
Answer: > 100 µM

Question: And the GI50 [25]?
Answer: 1.4 µM (inactive)

Question: And the GI50 [26]?
Answer: > 100 µM (inactive)

Question: And the GI50 [27]?
Answer: > 100 µM (inactive)

Question: What about the GI50 [28] of the same compound?
Answer: > 100 µM (inactive)

Question: What about the GI50 [29] of the same compound?
Answer: > 100 µM (inactive)

Question: And the GI50 [30]?
Answer: > 100 µM (inactive)

Question: And the GI50 [31]?
Answer: > 100 µM (inactive)

Question: And the GI50 [32]?
Answer: > 100 µM (inactive)

Question: What about the GI50 [33] of the same compound?
Answer: > 100 µM (inactive)

Question: What about the GI50 [34] of the same compound?
Answer: > 100 µM (inactive)

Question: And the GI50 [35]?
Answer: > 100 µM (inactive)

Question: And the GI50 [36]?
Answer: > 100 µM (inactive)

Question: What about the GI50 [37] of the same compound?
Answer: > 100 µM (inactive)

Question: And the GI50 [38]?
Answer: > 100 µM (inactive)

Question: What about the GI50 [39] of the same compound?
Answer: > 100 µM (inactive)

Question: What about the GI50 [40] of the same compound?
Answer: > 100 µM (inactive)

Question: And the GI50 [41]?
Answer: > 100 µM (inactive)

Question: What about the GI50 [42] of the same compound?
Answer: > 100 µM (inactive)

Question: What about the GI50 [43] of the same compound?
Answer: > 100 µM (inactive)

Question: What about the GI50 [44] of the same compound?
Answer: > 100 µM (inactive)

Question: And the GI50 [45]?
Answer: > 100 µM (inactive)

Question: What about the GI50 [46] of the same compound?
Answer: > 100 µM (inactive)

Question: And the GI50 [47]?
Answer: > 100 µM (inactive)

Question: And the GI50 [48]?
Answer: > 100 µM (inactive)

Question: And the GI50 [49]?
Answer: > 100 µM (inactive)

Question: What about the GI50 [50] of the same compound?
Answer: > 100 µM (inactive)

Question: And the GI50 [51]?
Answer: > 100 µM (inactive)

Question: What about the GI50 [52] of the same compound?
Answer: > 100 µM (inactive)

Question: What about the GI50 [53] of the same compound?
Answer: 11 µM (inactive)

Question: And the GI50 [54]?
Answer: > 100 µM (inactive)

Question: What about the GI50 [55] of the same compound?
Answer: > 100 µM (inactive)

Question: And the GI50 [56]?
Answer: > 100 µM (inactive)

Question: And the GI50 [57]?
Answer: > 100 µM (inactive)

Question: What about the GI50 [58] of the same compound?
Answer: > 100 µM (inactive)

Question: With `CCCCCCCCCCNC(=S)OCCCC` as the compound, how does the GI50 [1] read?
Answer: 29.1 µM (inactive)

Question: And the GI50 [2]?
Answer: 27.7 µM (inactive)

Question: What about the GI50 [3] of the same compound?
Answer: 34.9 µM (inactive)

Question: What about the GI50 [5] of the same compound?
Answer: 27.2 µM (inactive)

Question: And the GI50 [6]?
Answer: 12.8 µM (inactive)

Question: And the GI50 [7]?
Answer: 20.1 µM (inactive)

Question: And the GI50 [8]?
Answer: 14.7 µM (inactive)

Question: And the GI50 [9]?
Answer: 23.6 µM (inactive)

Question: What about the GI50 [10] of the same compound?
Answer: 26 µM (inactive)

Question: And the GI50 [11]?
Answer: 18.3 µM (inactive)

Question: What about the GI50 [12] of the same compound?
Answer: 23.5 µM (inactive)

Question: What about the GI50 [13] of the same compound?
Answer: 14.7 µM (inactive)

Question: And the GI50 [14]?
Answer: 33.3 µM (inactive)

Question: What about the GI50 [15] of the same compound?
Answer: 16.7 µM (inactive)

Question: What about the GI50 [16] of the same compound?
Answer: 22.9 µM (inactive)

Question: What about the GI50 [17] of the same compound?
Answer: 15.9 µM (inactive)

Question: What about the GI50 [18] of the same compound?
Answer: 34 µM (inactive)

Question: What about the GI50 [19] of the same compound?
Answer: 18 µM (inactive)

Question: And the GI50 [21]?
Answer: 46.8 µM (inactive)

Question: What about the GI50 [22] of the same compound?
Answer: 28.1 µM (inactive)

Question: What about the GI50 [23] of the same compound?
Answer: 19.5 µM (inactive)

Question: What about the GI50 [24] of the same compound?
Answer: 19.2 µM

Question: What about the GI50 [25] of the same compound?
Answer: 17.1 µM (inactive)

Question: What about the GI50 [26] of the same compound?
Answer: 27.2 µM (inactive)

Question: And the GI50 [27]?
Answer: 25.6 µM (inactive)

Question: And the GI50 [29]?
Answer: 14.3 µM (inactive)

Question: What about the GI50 [30] of the same compound?
Answer: 22.8 µM (inactive)

Question: And the GI50 [31]?
Answer: 19.1 µM (inactive)

Question: What about the GI50 [32] of the same compound?
Answer: 11.3 µM (inactive)

Question: What about the GI50 [33] of the same compound?
Answer: 25.8 µM (inactive)

Question: And the GI50 [34]?
Answer: 17.4 µM (inactive)

Question: And the GI50 [35]?
Answer: 19.7 µM (inactive)

Question: What about the GI50 [36] of the same compound?
Answer: 22.5 µM (inactive)

Question: And the GI50 [37]?
Answer: 23.4 µM (inactive)

Question: And the GI50 [38]?
Answer: 22.9 µM (inactive)

Question: And the GI50 [39]?
Answer: 18.6 µM (inactive)

Question: What about the GI50 [40] of the same compound?
Answer: 45.4 µM (inactive)

Question: What about the GI50 [41] of the same compound?
Answer: 20.3 µM (inactive)

Question: What about the GI50 [42] of the same compound?
Answer: 36.5 µM (inactive)

Question: What about the GI50 [43] of the same compound?
Answer: 24.6 µM (inactive)

Question: What about the GI50 [59] of the same compound?
Answer: 26.9 µM (inactive)

Question: What about the GI50 [44] of the same compound?
Answer: 26.4 µM (inactive)

Question: And the GI50 [45]?
Answer: 28.1 µM (inactive)

Question: And the GI50 [46]?
Answer: 18.5 µM (inactive)

Question: And the GI50 [47]?
Answer: 30 µM (inactive)

Question: What about the GI50 [48] of the same compound?
Answer: 35.3 µM (inactive)

Question: What about the GI50 [49] of the same compound?
Answer: 23.1 µM (inactive)

Question: What about the GI50 [50] of the same compound?
Answer: 19.5 µM (inactive)

Question: What about the GI50 [51] of the same compound?
Answer: 19.2 µM (inactive)

Question: And the GI50 [52]?
Answer: 25.8 µM (inactive)

Question: What about the GI50 [53] of the same compound?
Answer: 17.1 µM (inactive)

Question: What about the GI50 [54] of the same compound?
Answer: 14.7 µM (inactive)

Question: And the GI50 [55]?
Answer: 21.9 µM (inactive)

Question: What about the GI50 [56] of the same compound?
Answer: 25.8 µM (inactive)

Question: And the GI50 [57]?
Answer: 21.7 µM (inactive)

Question: And the GI50 [58]?
Answer: 35.3 µM (inactive)
